We go through 12 compounds from ChEMBL document CHEMBL5465560, “Selectivity Literature for EUbOPEN Chemogenomic Library” (2024).

The structures appear in SMILES notation.

Assay [1] concerns the target Phosphatidylinositol 4-kinase type 2-beta (Homo sapiens) (UniProt Q8TCG2). Put plainly: Selectivity interaction (Adapta Assay) EUB0001632a PI4K2B. The note with it: at 10 µM.
Assay [2] has as its target Serine/threonine-protein kinase 26 (Homo sapiens, UniProt Q9P289). Description: Selectivity interaction (Kinase panel (KiNativ target engagement assay in Jurkat cells)) EUB0001635a STK26. The following applies: Selectivity number of off-targets 0.0, Selectivity number of targets 233.0, Source Knowledge https://www.sciencedirect.com/science/article/pii/S2451945619300674?via%3Dihub, at 1 µM. In kind it is cell-based.

For assay [3], the target named is Mitogen-activated protein kinase kinase kinase 10 (Homo sapiens) (UniProt Q02779). Put plainly: Selectivity interaction (Ambit KINOMEscan and KiNATiv profiling in Jurkat cells) EUB0000090b MAP3K10. It is filed as cell-based. The following applies: at 1 µM.
Assay [4] deals with Insulin receptor-related protein (Homo sapiens) (UniProt P14616). Put plainly: Selectivity interaction (Ambit KINOMEscan and KiNATiv profiling in Jurkat cells) EUB0000090b INSRR. In kind it is cell-based. The note with it: at 1 µM.
Assay [5] concerns the target DNA (cytosine-5)-methyltransferase 1 (Homo sapiens) (UniProt P26358). Description: Selectivity interaction (Methyltransferase screen (radiometric assays, panel of 8 PRMTs, 21 protein lysine methyltransferases, 3 DNA methyltransferases, and one RNA methyltransferase)) EUB0000271b DNMT1.
The target of assay [6] is Serine/threonine-protein kinase 24 (Homo sapiens) (UniProt Q9Y6E0). Put plainly: Selectivity interaction (SelectScreen profiling (Invitrogen)) EUB0000607a STK24. The following applies: at 2 µM.
Assay [7] addresses T1, Serine/threonine-protein kinase TBK1 (Homo sapiens) (UniProt Q9UHD2).
T1 sequence (whole entry): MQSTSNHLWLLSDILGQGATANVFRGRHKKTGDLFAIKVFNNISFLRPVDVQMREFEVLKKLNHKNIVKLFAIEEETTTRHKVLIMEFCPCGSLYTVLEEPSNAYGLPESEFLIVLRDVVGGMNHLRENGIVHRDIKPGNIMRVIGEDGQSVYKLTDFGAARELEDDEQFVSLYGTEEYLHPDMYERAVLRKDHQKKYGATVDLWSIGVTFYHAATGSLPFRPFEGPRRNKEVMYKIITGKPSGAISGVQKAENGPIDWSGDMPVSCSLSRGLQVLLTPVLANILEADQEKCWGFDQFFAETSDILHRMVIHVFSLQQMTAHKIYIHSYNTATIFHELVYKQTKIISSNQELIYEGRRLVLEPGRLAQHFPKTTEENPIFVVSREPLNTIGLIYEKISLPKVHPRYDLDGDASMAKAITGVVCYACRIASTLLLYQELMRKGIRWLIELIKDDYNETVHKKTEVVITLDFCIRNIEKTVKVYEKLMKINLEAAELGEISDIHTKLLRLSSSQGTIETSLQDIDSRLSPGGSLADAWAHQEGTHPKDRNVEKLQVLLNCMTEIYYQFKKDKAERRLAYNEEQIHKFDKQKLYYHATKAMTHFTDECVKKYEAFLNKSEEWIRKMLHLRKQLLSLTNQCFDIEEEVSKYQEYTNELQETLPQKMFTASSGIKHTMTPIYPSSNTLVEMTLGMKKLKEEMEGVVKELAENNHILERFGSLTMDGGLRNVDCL
Description: Selectivity interaction (ActivX KiNativ screen (ex vivo kinase selectivity in human PBMCs)) EUB0001619a TBK1. In kind it is cell-based. The following applies: PBMC, at 1 µM.

For assay [8], the target named is Serine/threonine-protein kinase 16 (Homo sapiens, UniProt O75716). Put plainly: Selectivity interaction (ActivX KiNativ screen (kinase selectivity in THP-1 cell lysates)) EUB0000639a STK16. In kind it is subcellular. The following applies: lysate.
In assay [9] the target is Serine/threonine-protein kinase MARK2 (Homo sapiens) (UniProt Q7KZI7). Description: Selectivity interaction (ActivX KiNativ screen (kinase selectivity in THP-1 cell lysates)) EUB0000639a MARK2. In kind it is subcellular. The following applies: lysate, at 0.2 µM.
Assay [10] has as its target Casein kinase I isoform delta (Homo sapiens, UniProt P48730). Put plainly: Selectivity interaction (KinomeScan (DiscoverX)) EUB0001049a CSNK1D. The note with it: at 1 µM.
Assay [11] addresses T2, Interleukin-1 receptor-associated kinase 3 (Homo sapiens) (UniProt Q9Y616).
T2 sequence (whole entry): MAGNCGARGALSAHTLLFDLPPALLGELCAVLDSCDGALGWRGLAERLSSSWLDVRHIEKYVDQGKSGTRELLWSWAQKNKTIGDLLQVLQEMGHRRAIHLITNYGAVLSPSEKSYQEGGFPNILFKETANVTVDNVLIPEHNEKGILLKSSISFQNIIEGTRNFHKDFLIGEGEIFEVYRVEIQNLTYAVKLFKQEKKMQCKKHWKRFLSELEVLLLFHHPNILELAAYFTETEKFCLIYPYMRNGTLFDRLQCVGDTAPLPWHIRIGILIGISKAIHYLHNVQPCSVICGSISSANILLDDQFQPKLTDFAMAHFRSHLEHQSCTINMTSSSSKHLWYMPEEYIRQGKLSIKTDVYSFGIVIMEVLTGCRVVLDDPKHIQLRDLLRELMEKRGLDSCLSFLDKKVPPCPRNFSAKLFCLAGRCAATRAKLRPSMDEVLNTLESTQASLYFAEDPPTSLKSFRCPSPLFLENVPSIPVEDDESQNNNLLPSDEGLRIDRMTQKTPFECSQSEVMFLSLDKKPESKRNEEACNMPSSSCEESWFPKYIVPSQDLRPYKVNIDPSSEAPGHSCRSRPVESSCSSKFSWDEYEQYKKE
Put plainly: Selectivity interaction (KinomeScan (DiscoverX)) EUB0000695a IRAK3. The following applies: at 100 nM.

In assay [12] the target is Protein polybromo-1 (Homo sapiens) (UniProt Q86U86). Description: Selectivity interaction (Human bromodomain panel (DSF assay)) EUB0000233b PBRM1.
For assay [13], the target named is Leucine-rich repeat serine/threonine-protein kinase 2 (Homo sapiens, UniProt Q5S007). Description: (§1) Selectivity interaction (KinomeScan (DiscoverX)) EUB0000092b LRRK2. The note with it: at 10 µM.
In assay [14] the test system is Leucine-rich repeat serine/threonine-protein kinase 2 (Homo sapiens), Q5S007 [G2019S]. The description is as §1. The note with it: at 10 µM.
For assay [15], the target named is STE20/SPS1-related proline-alanine-rich protein kinase (Homo sapiens) (UniProt Q9UEW8). Put plainly: Selectivity interaction (KinomeScan (DiscoverX)) EUB0000595a STK39. The following applies: at 10 µM.
Assay [16] deals with Mitogen-activated protein kinase kinase kinase 4 (Homo sapiens) (UniProt Q9Y6R4). Put plainly: Selectivity interaction (KinomeScan (DiscoverX)) EUB0000595a MAP3K4. The note with it: at 10 µM.

Serine/threonine-protein kinase 16, sequence (O75716 whole entry): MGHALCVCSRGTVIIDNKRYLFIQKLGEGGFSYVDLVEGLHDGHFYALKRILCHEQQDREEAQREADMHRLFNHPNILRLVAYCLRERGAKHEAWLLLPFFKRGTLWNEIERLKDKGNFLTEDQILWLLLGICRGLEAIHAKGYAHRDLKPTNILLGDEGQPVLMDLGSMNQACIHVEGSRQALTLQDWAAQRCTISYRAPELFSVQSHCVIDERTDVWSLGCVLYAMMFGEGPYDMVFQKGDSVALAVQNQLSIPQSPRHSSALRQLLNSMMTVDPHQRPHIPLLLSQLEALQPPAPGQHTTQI
DNA (cytosine-5)-methyltransferase 1 (Homo sapiens), sequence (P26358 whole entry): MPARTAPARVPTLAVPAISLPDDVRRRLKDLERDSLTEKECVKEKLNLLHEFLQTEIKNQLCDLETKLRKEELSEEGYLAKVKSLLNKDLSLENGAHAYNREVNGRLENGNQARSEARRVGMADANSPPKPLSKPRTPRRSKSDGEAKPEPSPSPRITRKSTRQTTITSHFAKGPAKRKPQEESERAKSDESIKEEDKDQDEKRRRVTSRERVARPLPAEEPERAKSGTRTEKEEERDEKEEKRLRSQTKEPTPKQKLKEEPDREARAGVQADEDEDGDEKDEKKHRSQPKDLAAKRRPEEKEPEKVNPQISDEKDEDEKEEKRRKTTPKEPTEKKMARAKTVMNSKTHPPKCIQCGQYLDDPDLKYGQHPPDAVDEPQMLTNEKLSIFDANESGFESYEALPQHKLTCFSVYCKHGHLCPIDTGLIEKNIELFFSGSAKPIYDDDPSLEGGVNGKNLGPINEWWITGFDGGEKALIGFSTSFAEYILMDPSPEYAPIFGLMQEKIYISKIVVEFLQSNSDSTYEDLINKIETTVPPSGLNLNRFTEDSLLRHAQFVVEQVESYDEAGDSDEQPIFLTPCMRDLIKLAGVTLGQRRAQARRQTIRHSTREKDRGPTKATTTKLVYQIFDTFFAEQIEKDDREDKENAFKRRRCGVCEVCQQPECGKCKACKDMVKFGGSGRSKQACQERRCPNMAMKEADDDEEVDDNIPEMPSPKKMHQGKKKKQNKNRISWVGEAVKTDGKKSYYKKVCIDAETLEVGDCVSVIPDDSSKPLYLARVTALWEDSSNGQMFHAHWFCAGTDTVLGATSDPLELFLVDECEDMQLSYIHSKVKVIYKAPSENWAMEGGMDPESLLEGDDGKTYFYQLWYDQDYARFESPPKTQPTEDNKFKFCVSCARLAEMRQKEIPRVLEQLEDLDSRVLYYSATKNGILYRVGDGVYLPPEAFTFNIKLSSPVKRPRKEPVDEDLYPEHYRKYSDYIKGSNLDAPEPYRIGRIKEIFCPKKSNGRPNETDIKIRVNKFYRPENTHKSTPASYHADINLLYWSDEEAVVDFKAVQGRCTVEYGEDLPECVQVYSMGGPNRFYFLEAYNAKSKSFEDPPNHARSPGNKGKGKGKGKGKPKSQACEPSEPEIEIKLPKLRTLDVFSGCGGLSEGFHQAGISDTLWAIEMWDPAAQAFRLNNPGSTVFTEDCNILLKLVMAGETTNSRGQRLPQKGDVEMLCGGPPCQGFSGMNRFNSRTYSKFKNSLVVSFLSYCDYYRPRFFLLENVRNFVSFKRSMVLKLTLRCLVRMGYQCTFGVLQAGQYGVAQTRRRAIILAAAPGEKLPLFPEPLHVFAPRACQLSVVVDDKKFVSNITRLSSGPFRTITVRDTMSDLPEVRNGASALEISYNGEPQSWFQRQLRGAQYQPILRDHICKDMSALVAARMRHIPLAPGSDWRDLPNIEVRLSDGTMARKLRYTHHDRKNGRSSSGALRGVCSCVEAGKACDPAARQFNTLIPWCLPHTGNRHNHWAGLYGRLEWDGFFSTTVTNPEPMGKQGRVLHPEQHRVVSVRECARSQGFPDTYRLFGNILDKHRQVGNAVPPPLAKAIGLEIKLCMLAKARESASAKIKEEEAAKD
Leucine-rich repeat serine/threonine-protein kinase 2, sequence (Q5S007 whole entry): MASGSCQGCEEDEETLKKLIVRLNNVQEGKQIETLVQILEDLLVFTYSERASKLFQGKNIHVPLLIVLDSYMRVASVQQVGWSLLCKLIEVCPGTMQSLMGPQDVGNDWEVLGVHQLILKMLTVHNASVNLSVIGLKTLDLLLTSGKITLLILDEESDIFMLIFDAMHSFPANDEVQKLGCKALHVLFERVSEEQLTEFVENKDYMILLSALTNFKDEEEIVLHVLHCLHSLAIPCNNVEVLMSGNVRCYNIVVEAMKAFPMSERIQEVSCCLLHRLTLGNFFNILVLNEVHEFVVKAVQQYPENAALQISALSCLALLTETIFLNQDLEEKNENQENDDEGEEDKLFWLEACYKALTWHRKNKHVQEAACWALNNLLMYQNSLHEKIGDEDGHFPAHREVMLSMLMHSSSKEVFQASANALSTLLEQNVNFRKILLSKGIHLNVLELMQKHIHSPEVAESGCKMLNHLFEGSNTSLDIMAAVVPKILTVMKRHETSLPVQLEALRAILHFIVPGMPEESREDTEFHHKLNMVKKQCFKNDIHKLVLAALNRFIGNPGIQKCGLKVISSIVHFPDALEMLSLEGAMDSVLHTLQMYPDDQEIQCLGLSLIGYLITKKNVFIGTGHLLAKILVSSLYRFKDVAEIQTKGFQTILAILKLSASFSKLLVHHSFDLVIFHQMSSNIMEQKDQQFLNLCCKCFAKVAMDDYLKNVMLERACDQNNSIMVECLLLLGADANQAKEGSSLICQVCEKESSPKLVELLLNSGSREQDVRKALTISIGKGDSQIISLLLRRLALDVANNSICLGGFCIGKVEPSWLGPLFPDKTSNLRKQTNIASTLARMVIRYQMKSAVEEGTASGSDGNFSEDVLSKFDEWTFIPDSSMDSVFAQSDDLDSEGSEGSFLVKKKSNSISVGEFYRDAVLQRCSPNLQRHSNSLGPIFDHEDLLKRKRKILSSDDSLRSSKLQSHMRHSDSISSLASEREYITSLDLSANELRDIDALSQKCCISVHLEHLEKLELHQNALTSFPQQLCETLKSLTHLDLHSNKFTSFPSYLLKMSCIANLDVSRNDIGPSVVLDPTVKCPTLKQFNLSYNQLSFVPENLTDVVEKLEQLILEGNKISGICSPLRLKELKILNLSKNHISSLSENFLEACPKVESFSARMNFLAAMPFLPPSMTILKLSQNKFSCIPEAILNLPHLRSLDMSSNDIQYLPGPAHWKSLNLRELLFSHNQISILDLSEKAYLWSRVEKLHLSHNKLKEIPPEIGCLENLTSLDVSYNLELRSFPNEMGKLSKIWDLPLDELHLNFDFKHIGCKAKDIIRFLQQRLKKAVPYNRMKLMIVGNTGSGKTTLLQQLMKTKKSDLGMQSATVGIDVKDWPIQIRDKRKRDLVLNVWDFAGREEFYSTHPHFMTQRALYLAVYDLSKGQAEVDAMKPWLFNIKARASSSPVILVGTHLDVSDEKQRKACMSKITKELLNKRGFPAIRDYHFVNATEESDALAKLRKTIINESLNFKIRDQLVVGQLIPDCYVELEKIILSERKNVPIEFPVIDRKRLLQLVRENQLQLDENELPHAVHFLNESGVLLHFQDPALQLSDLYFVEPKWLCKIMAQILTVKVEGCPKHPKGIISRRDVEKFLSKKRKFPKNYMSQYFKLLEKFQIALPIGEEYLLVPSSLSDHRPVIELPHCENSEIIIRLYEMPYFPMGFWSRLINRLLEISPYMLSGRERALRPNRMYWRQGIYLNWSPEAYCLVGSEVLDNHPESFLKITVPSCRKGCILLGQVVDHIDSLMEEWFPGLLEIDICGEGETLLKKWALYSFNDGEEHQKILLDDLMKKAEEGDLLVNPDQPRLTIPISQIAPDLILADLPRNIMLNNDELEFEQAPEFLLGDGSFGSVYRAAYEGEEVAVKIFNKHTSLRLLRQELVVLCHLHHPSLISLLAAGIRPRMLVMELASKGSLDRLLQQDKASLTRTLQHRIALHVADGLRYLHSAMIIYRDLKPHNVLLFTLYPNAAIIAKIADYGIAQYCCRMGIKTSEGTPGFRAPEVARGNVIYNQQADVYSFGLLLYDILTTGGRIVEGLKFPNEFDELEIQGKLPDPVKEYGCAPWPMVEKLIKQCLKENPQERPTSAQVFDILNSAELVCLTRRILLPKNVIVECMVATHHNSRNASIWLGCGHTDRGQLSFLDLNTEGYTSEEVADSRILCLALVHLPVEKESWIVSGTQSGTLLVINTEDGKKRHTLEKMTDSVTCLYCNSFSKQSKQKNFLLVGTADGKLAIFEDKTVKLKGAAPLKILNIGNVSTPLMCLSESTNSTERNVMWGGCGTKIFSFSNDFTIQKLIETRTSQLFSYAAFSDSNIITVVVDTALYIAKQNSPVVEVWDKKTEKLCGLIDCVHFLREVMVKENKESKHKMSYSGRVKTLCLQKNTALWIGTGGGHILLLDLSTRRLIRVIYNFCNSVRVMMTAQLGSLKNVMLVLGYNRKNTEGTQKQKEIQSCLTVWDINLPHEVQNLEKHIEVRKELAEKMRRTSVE
Serine/threonine-protein kinase 26, sequence (Q9P289 2-416 limits assumed): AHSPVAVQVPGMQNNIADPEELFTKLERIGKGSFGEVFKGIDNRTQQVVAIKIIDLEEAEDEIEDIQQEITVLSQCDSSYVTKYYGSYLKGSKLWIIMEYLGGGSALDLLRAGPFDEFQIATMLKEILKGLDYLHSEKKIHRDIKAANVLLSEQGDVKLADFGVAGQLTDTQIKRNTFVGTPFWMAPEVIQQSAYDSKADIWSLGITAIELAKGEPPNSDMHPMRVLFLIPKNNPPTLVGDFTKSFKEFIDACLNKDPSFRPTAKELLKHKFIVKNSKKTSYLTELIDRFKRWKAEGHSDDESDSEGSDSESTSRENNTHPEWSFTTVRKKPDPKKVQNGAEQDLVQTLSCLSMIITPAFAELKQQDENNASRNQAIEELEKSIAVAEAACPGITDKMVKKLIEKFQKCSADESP
Leucine-rich repeat serine/threonine-protein kinase 2 (Homo sapiens), Q5S007 [G2019S], sequence (Q5S007 whole entry G2019S): as the sequence (Q5S007 whole entry) above, with G2019S counted along it

As to `Cn1cc(-n2cnc3c(NCc4nc5cc(Cl)c(Cl)cc5[nH]4)nc(N4CCOCC4)nc32)cn1`, the % of inhibition in [1] was -1.89%.

Regarding `C=CC(=O)Nc1ccc(C(=O)Nc2[nH]nc3c2CN(C(=O)N[C@H](CN(C)C)c2ccccc2)C3(C)C)cc1`, the % of engagement in assay [2] was determined as 26%.

On to `CN(C)C/C=C/C(=O)Nc1ccc(C(=O)N2CCCC(Nc3ncc(Cl)c(-c4c[nH]c5ccccc45)n3)C2)cc1` (stereo unspecified), for which the % of control in assay [3] and in [4] was 100% each time.

As to `Cc1cc(C)cc([C@@H]2c3cc(C)ccc3NC(=O)CN2C(=O)c2ccc(Br)s2)c1`, the figures for the % of activity in assay [5] (at 1 µM) and in assay [5] (at 10 µM) were 98.3% and 97.7%, respectively.

As to `CNC(=O)Nc1ccc(-c2nc(N3CC4CCC(C3)O4)c3cnn(C4CCC5(CC4)OCCO5)c3n2)cc1`, the % of inhibition in [6] was -1%.

`N#Cc1cccc(-c2c[nH]c3ncnc(N4CCOCC4)c23)c1`: the % of inhibition in assay [7] came to 19%.

Consider `CC[C@@H]1[C@H](F)C(=O)N[C@@H]1COc1nccc2cc(C(N)=O)c(OC)cc12` [ZIMLOVISERTIB], for which the % of inhibition in assay [8] (at 0.01 µM) is 10.7%; in assay [8] (at 0.04 µM), 27.8%; in [8] (at 0.2 µM) it was 22.2%; in assay [8] (at 1 µM), 67.2%; in [8] (at 5 µM) it was > 94%; in assay [9], 8.4%.

As for `COc1cc(Nc2nc(C)cc(-c3cnn4nc(OC)ccc34)n2)cc(C(F)(F)F)c1`, the % of control in [10] came to 90%.

As to `Cc1cc(F)c(C(=O)Nc2cccc(-c3nncn3C(C)C)n2)cc1-n1cnc(C2CC2)c1`, in assay [11], the % of control worked out at 100%.

For the compound `CN(C)CCCOc1ccc(-c2cc(NCCCn3cccn3)nc(S(C)(=O)=O)n2)cc1`, in [12], the dTM was < 2 K.

With `CCC(=O)N1CCN(c2ccc(-n3c(=O)ccc4cnc5ccc(-c6cnc7ccccc7c6)cc5c43)cc2C(F)(F)F)CC1`, the figures for the % of control in assay [13] and in [14] were 81% and 99%, respectively.

Take `COCC(=O)NC/C=C/c1ccc2ncnc(Nc3ccc(Oc4ccc(C)nc4)c(C)c3)c2c1` [CP-724714]: the % of control in [15] worked out at 100%; in assay [16], 97%.
